Measured values as given in PubChem BioAssay (NCI).
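Growth conditions: 96-well plates. Treatment: test compound, 48 hours, 5 concentrations. Analysis: linear interpolation between bracketing concentrations; unreached endpoints set to highest concentration. TGI is the concentration that stops growth completely.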

What was measured:
Experiment in all cases: DTP human tumour cell line panel, 48 h
LOX IMVI melanoma = tested on: LOX IMVI melanoma
PC-3 prostate = tested on: PC-3 prostate
UO-31 renal = tested on: UO-31 renal
BT-549 breast = tested on: BT-549 breast
K-562 leukemia = tested on: K-562 leukemia
SK-OV-3 ovarian = tested on: SK-OV-3 ovarian
SN12C renal = tested on: SN12C renal
MDA-N = tested on: MDA-N
COLO 205 colon = tested on: COLO 205 colon
SR leukemia = tested on: SR leukemia
MOLT-4 leukemia = tested on: MOLT-4 leukemia
CCRF-CEM leukemia = tested on: CCRF-CEM leukemia
ACHN renal = tested on: ACHN renal

C1CC[C@H]2SSC3CCCC[C@H]3SSC2C1 (some centres undefined)
TGI (LOX IMVI melanoma): > 100 µM | TGI (PC-3 prostate): > 100 µM | TGI (UO-31 renal): > 100 µM | TGI (BT-549 breast): > 100 µM | TGI (K-562 leukemia): > 100 µM | TGI (SK-OV-3 ovarian): > 100 µM | TGI (SN12C renal): > 100 µM | TGI (MDA-N): > 100 µM | TGI (COLO 205 colon): > 100 µM | TGI (SR leukemia): > 100 µM | TGI (MOLT-4 leukemia): > 100 µM | TGI (CCRF-CEM leukemia): > 100 µM

O=c1cn[nH]c(=S)n1/N=C/c1c[nH]c2ccccc12
TGI (LOX IMVI melanoma): 93.2 µM | TGI (PC-3 prostate): > 100 µM | TGI (UO-31 renal): > 100 µM | TGI (BT-549 breast): > 100 µM | TGI (K-562 leukemia): > 100 µM | TGI (SK-OV-3 ovarian): > 100 µM | TGI (MDA-N): > 100 µM | TGI (ACHN renal): > 100 µM | TGI (COLO 205 colon): > 100 µM | TGI (SR leukemia): > 100 µM | TGI (MOLT-4 leukemia): > 100 µM | TGI (CCRF-CEM leukemia): 30.3 µM

CC1CCC2(CC1)NC1=C(CC(C)CC1)C1=C2CC(C)CC1 (centres undefined)
TGI (LOX IMVI melanoma): 34.9 µM | TGI (PC-3 prostate): 47.9 µM | TGI (UO-31 renal): 51.7 µM | TGI (BT-549 breast): 38.4 µM | TGI (K-562 leukemia): 42.9 µM | TGI (SK-OV-3 ovarian): > 100 µM | TGI (MDA-N): > 100 µM | TGI (ACHN renal): 62.8 µM | TGI (COLO 205 colon): 49.8 µM | TGI (SR leukemia): 55.8 µM | TGI (MOLT-4 leukemia): 53 µM | TGI (CCRF-CEM leukemia): 43.6 µM

O=C1CC(=O)NC(=NNS(=O)(=O)c2ccccc2)N1
TGI (PC-3 prostate): > 100 µM | TGI (UO-31 renal): > 100 µM | TGI (BT-549 breast): > 100 µM | TGI (K-562 leukemia): > 100 µM | TGI (SK-OV-3 ovarian): > 100 µM | TGI (SN12C renal): > 100 µM | TGI (MDA-N): > 100 µM | TGI (ACHN renal): > 100 µM | TGI (COLO 205 colon): > 100 µM | TGI (SR leukemia): > 100 µM | TGI (MOLT-4 leukemia): > 100 µM | TGI (CCRF-CEM leukemia): > 100 µM

OCCOc1ccccc2cccc1-2
TGI (LOX IMVI melanoma): > 100 µM | TGI (PC-3 prostate): > 100 µM | TGI (UO-31 renal): > 100 µM | TGI (BT-549 breast): > 100 µM | TGI (K-562 leukemia): > 100 µM | TGI (SK-OV-3 ovarian): > 100 µM | TGI (SN12C renal): > 100 µM | TGI (MDA-N): > 100 µM | TGI (ACHN renal): > 100 µM | TGI (COLO 205 colon): > 100 µM | TGI (SR leukemia): > 100 µM | TGI (CCRF-CEM leukemia): > 100 µM

COC(=O)[C@H](CC(C)C)Nc1c(O)c2c(c(O)c1Cl)C(=O)C=CC2=O
TGI (LOX IMVI melanoma): 5.74 µM | TGI (PC-3 prostate): > 10 µM | TGI (BT-549 breast): > 10 µM | TGI (K-562 leukemia): > 10 µM | TGI (SK-OV-3 ovarian): > 10 µM | TGI (SN12C renal): > 10 µM | TGI (MDA-N): > 10 µM | TGI (ACHN renal): > 10 µM | TGI (COLO 205 colon): > 10 µM | TGI (SR leukemia): > 10 µM | TGI (MOLT-4 leukemia): > 10 µM | TGI (CCRF-CEM leukemia): > 10 µM

CC(=O)Nc1nnc(S(C)(=O)=O)s1
TGI (PC-3 prostate): > 100 µM | TGI (UO-31 renal): > 100 µM | TGI (BT-549 breast): > 100 µM | TGI (K-562 leukemia): > 100 µM | TGI (SN12C renal): > 100 µM | TGI (MDA-N): > 100 µM | TGI (ACHN renal): > 100 µM | TGI (COLO 205 colon): > 100 µM | TGI (SR leukemia): > 100 µM | TGI (MOLT-4 leukemia): > 100 µM | TGI (CCRF-CEM leukemia): > 100 µM

COC(=O)C1=C(C(=O)OC)SC2(S1)C(C(=O)OC)=C(C(=O)OC)Sc1c2ssc1=Nc1ccc(Cl)cc1
TGI (LOX IMVI melanoma): 1.16 µM | TGI (PC-3 prostate): 1.71 µM | TGI (UO-31 renal): 2.01 µM | TGI (BT-549 breast): 5.11 µM | TGI (K-562 leukemia): 5.78 µM | TGI (SK-OV-3 ovarian): 4.29 µM | TGI (SN12C renal): 1.8 µM | TGI (MDA-N): 1.69 µM | TGI (ACHN renal): 2.7 µM | TGI (COLO 205 colon): 2.04 µM | TGI (SR leukemia): 1.73 µM | TGI (MOLT-4 leukemia): 5.04 µM

CCOC1Oc2ccccc2-c2nc(SC)ncc21 (centres undefined)
TGI (LOX IMVI melanoma): > 100 µM | TGI (PC-3 prostate): > 100 µM | TGI (UO-31 renal): > 100 µM | TGI (BT-549 breast): > 100 µM | TGI (SK-OV-3 ovarian): > 100 µM | TGI (SN12C renal): > 100 µM | TGI (MDA-N): > 100 µM | TGI (ACHN renal): > 100 µM | TGI (COLO 205 colon): > 100 µM | TGI (SR leukemia): > 100 µM | TGI (MOLT-4 leukemia): > 100 µM | TGI (CCRF-CEM leukemia): > 100 µM

O=C1CSC(c2c[nH]c3ccccc23)N1c1ccccc1[N+](=O)[O-] (centres undefined)
TGI (LOX IMVI melanoma): > 100 µM | TGI (PC-3 prostate): > 100 µM | TGI (UO-31 renal): > 100 µM | TGI (BT-549 breast): > 100 µM | TGI (K-562 leukemia): > 100 µM | TGI (SK-OV-3 ovarian): > 100 µM | TGI (SN12C renal): > 100 µM | TGI (MDA-N): > 100 µM | TGI (COLO 205 colon): > 100 µM | TGI (SR leukemia): > 100 µM | TGI (MOLT-4 leukemia): > 100 µM | TGI (CCRF-CEM leukemia): > 100 µM

FC(F)(Sc1ncc[nH]1)c1nc2ccccc2o1
TGI (PC-3 prostate): > 100 µM | TGI (UO-31 renal): > 100 µM | TGI (BT-549 breast): > 100 µM | TGI (K-562 leukemia): > 100 µM | TGI (SK-OV-3 ovarian): > 100 µM | TGI (SN12C renal): > 100 µM | TGI (MDA-N): > 100 µM | TGI (ACHN renal): > 100 µM | TGI (COLO 205 colon): > 100 µM | TGI (SR leukemia): > 100 µM | TGI (MOLT-4 leukemia): > 100 µM | TGI (CCRF-CEM leukemia): > 100 µM

CC1C(OC2O[C@@H]3O[C@@]4(C)CC[C@H]5[C@H](C)CC[C@@H](C2C)[C@@]35O4)O[C@@H]2O[C@@]3(C)CC[C@H]4[C@H](C)CC[C@@H]1[C@@]24O3 (some centres undefined)
TGI (LOX IMVI melanoma): > 50 µM | TGI (PC-3 prostate): > 50 µM | TGI (BT-549 breast): > 50 µM | TGI (K-562 leukemia): > 50 µM | TGI (SK-OV-3 ovarian): > 50 µM | TGI (SN12C renal): > 50 µM | TGI (MDA-N): > 50 µM | TGI (ACHN renal): > 50 µM | TGI (COLO 205 colon): > 50 µM | TGI (SR leukemia): > 50 µM | TGI (MOLT-4 leukemia): > 50 µM | TGI (CCRF-CEM leukemia): > 50 µM

Cn1c(=O)sc2cc(C(=S)N3CCC(Cc4ccccc4)CC3)ccc21
TGI (LOX IMVI melanoma): > 100 µM | TGI (PC-3 prostate): > 100 µM | TGI (BT-549 breast): > 100 µM | TGI (K-562 leukemia): > 100 µM | TGI (SK-OV-3 ovarian): > 100 µM | TGI (SN12C renal): > 100 µM | TGI (MDA-N): > 100 µM | TGI (ACHN renal): > 100 µM | TGI (COLO 205 colon): > 100 µM | TGI (SR leukemia): > 100 µM | TGI (MOLT-4 leukemia): > 100 µM | TGI (CCRF-CEM leukemia): > 100 µM

COc1ccc(C(=O)/C=C/c2ccc(OCCSCCCCCCCCCCSCCOc3ccc(/C=C/C(=O)c4ccc(OC)c(OC)c4)cc3)cc2)cc1OC
TGI (LOX IMVI melanoma): > 100 µM | TGI (PC-3 prostate): > 100 µM | TGI (BT-549 breast): > 100 µM | TGI (K-562 leukemia): > 100 µM | TGI (SK-OV-3 ovarian): > 100 µM | TGI (SN12C renal): > 100 µM | TGI (MDA-N): > 100 µM | TGI (ACHN renal): > 100 µM | TGI (COLO 205 colon): > 100 µM | TGI (SR leukemia): > 100 µM | TGI (MOLT-4 leukemia): > 100 µM | TGI (CCRF-CEM leukemia): > 100 µM

COc1ccc2cc(-c3nc(N)nc(N4N=C(C)CC4(C)C)n3)c(=N)oc2c1
TGI (PC-3 prostate): 39.2 µM | TGI (UO-31 renal): 55.1 µM | TGI (BT-549 breast): 48.1 µM | TGI (K-562 leukemia): 40.2 µM | TGI (SK-OV-3 ovarian): 53.9 µM | TGI (SN12C renal): 51.7 µM | TGI (MDA-N): 33.5 µM | TGI (ACHN renal): 31.8 µM | TGI (COLO 205 colon): 30.8 µM | TGI (SR leukemia): 32.1 µM | TGI (MOLT-4 leukemia): 33.7 µM | TGI (CCRF-CEM leukemia): 41.4 µM
